This note sets out measurements from ChEMBL document CHEMBL1201862, “PubChem BioAssay data set” (2004).

Test systems include TK-10; SF-268; RXF 393; BT-549; NCI/ADR-RES; OVCAR-5; OVCAR-4; MOLT-4; SK-OV-3; 786-0; SK-MEL-5; SN12C; COLO 205; HOP-92; RPMI-8226; SR; A549; EKVX; KM12; NCI-H522.
What all share (test): inhibition of tumour cell growth, NCI panel, 48 h

Molecules are shown by their SMILES.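 These data come from cells grown in 96-well plates and exposed to compound for 48 hours at five concentrations. Abbreviation: GI50, concentration required for 50% inhibition of growth.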 Activity calls are given as the source filed them. Rule as the data show it: active = GI50 up to about 1.1 µM and inactive = higher.

As to `C(=N\c1ccc(-c2nc3ccccc3s2)cc1)/c1ccco1`, the GI50 in the assay on TK-10 is 2 µM (inactive); in the assay with SF-268 it was 48.2 µM (inactive); in the assay on RXF 393, 55.7 µM (inactive); in the assay on BT-549, 83.4 µM (inactive); with NCI/ADR-RES, 60.8 µM (inactive); in the assay with OVCAR-5, > 100 µM (inactive). The GI50 with OVCAR-4 was 59.6 µM (inactive); in the assay with MOLT-4 it was 29 µM (inactive); in the assay with SK-OV-3 it was 83.8 µM (inactive); with 786-0, 83 µM (inactive); with SK-MEL-5 it was 33.5 µM (inactive); with SN12C, 75.2 µM (inactive). For the same molecule, the GI50 was 87.3 µM (inactive) in the assay with COLO 205; 39.5 µM (inactive) in the assay with HOP-92; 41.6 µM (inactive) in the assay on RPMI-8226; 50.2 µM (inactive) in the assay with SR; 56.6 µM (inactive) in the assay on A549; 37.2 µM (inactive) in the assay on EKVX. The values for the GI50 in the assay on KM12 and with NCI-H522 were 38 µM (inactive) and 44.5 µM (inactive), respectively.
Take `CSc1c(C#N)c(O)n(-c2ccc(Cl)cc2)c(=O)c1C#N`: the GI50 in the assay with TK-10 was > 100 µM (inactive); with SF-268, > 100 µM (inactive); in the assay on RXF 393, > 100 µM (inactive); in the assay on BT-549, > 100 µM (inactive); with NCI/ADR-RES, 77.3 µM (inactive); in the assay on OVCAR-5 it was > 100 µM (inactive). The GI50 with OVCAR-4 was > 100 µM (inactive); in the assay on MOLT-4 it was 76.4 µM (inactive); in the assay with SK-OV-3, > 100 µM (inactive); in the assay on 786-0 it was > 100 µM (inactive); with SK-MEL-5 it was > 100 µM (inactive); in the assay with SN12C, > 100 µM (inactive). Besides, the GI50 in the assay on COLO 205 is > 100 µM (inactive); in the assay with HOP-92, 30.8 µM (inactive); in the assay with RPMI-8226 it was 39.5 µM (inactive); with SR, > 100 µM (inactive); in the assay on A549, 80.4 µM (inactive); in the assay with EKVX it was > 100 µM (inactive). The values for the GI50 with KM12 and in the assay on NCI-H522 were 36 µM (inactive) and 40.5 µM (inactive), respectively.
As for `CN(C)CCCNc1c2c(nc3ccc(Cl)cc13)CCCC2`, the GI50 in the assay on TK-10 was 15.2 µM (inactive); in the assay on SF-268, 13.2 µM (inactive); in the assay with RXF 393, 12.9 µM (inactive); with BT-549 it was 18.1 µM (inactive); with NCI/ADR-RES, 18.1 µM (inactive); in the assay with OVCAR-5 it was 20 µM (inactive). For the same molecule, the GI50 in the assay with OVCAR-4 was 15.3 µM (inactive); with MOLT-4, 4.12 µM (inactive); in the assay on SK-OV-3, 23 µM (inactive); in the assay on 786-0, 10.5 µM (inactive); with SK-MEL-5 it was 14.4 µM (inactive); with SN12C, 11.8 µM (inactive). For the same molecule, the GI50 in the assay with COLO 205 was 8.51 µM (inactive); in the assay with HOP-92, 10.3 µM (inactive); with RPMI-8226, 7.59 µM (inactive); in the assay on SR, 2.55 µM (inactive); with A549 it was 16.8 µM (inactive); in the assay with EKVX, 14.9 µM (inactive). For the same molecule, the GI50 in the assay with KM12 is 13.6 µM (inactive); in the assay with NCI-H522, 12.2 µM (inactive).
For `Cc1c2ncccc2c(C)c2c1[nH]c1ccc(O)cc12`, the GI50 is 12.8 µM (inactive) in the assay on TK-10; 4.94 µM (inactive) in the assay on SF-268; 2.9 µM (inactive) with RXF 393; 13.7 µM (inactive) with BT-549; 5.27 µM (inactive) with NCI/ADR-RES; 11.3 µM (inactive) in the assay with OVCAR-5. The GI50 in the assay with OVCAR-4 was 4.15 µM (inactive); in the assay on MOLT-4 it was 0.478 µM (active); in the assay on SK-OV-3 it was 3.38 µM (inactive); in the assay on 786-0 it was 2.91 µM (inactive); in the assay with SK-MEL-5 it was 7.24 µM (inactive); in the assay on SN12C, 2.24 µM (inactive). For the same molecule, the GI50 with COLO 205 was 10.4 µM (inactive); in the assay with HOP-92 it was 4.54 µM (inactive); in the assay on RPMI-8226, 2 µM (inactive); in the assay with SR, 1.74 µM (inactive); in the assay on A549 it was 2.56 µM (inactive); in the assay on EKVX, 1.4 µM (inactive). In addition, the GI50 in the assay with KM12 is 3.6 µM (inactive); with NCI-H522, 6.22 µM (inactive).
As to `S=C1c2cc(Cl)ccc2N=C(NC2CCCC2)C2CSCN12` (stereo unspecified), the GI50 in the assay with TK-10 is > 100 µM (inactive); with SF-268 it was > 100 µM (inactive); with RXF 393 it was > 69.7 µM (inactive); in the assay with BT-549, > 100 µM (inactive); with NCI/ADR-RES, 98.6 µM (inactive); in the assay with OVCAR-5 it was > 100 µM (inactive). Besides, the GI50 with OVCAR-4 was > 100 µM (inactive); in the assay on MOLT-4, > 57.7 µM (inactive); in the assay on SK-OV-3 it was > 100 µM (inactive); in the assay on 786-0, > 100 µM (inactive); with SK-MEL-5 it was > 100 µM (inactive); in the assay with SN12C, > 100 µM (inactive). The GI50 is > 100 µM (inactive) with COLO 205; 60.5 µM (inactive) with HOP-92; > 63.8 µM (inactive) in the assay with RPMI-8226; > 60.1 µM (inactive) in the assay on SR; > 84.9 µM (inactive) with A549; > 91 µM (inactive) in the assay on EKVX. The GI50 was > 41.4 µM (inactive) in the assay with KM12 and > 100 µM (inactive) with NCI-H522.
On to `COC(=O)C1=CON2C3CC4CC(C3)CC(C4)C12C` (stereo unspecified), for which the GI50 in the assay on TK-10, in the assay with SF-268, with RXF 393, in the assay on BT-549, with NCI/ADR-RES and in the assay on OVCAR-5 was > 100 µM (inactive) throughout. Also, the GI50 in the assay with OVCAR-4, in the assay on MOLT-4, in the assay with SK-OV-3, with 786-0, in the assay on SK-MEL-5 and in the assay with SN12C was > 100 µM (inactive) each time. The GI50 with COLO 205, in the assay on HOP-92, in the assay with RPMI-8226, with SR, in the assay on A549 and in the assay on EKVX was > 100 µM (inactive) each time. The GI50 in the assay with KM12 and with NCI-H522 was > 100 µM (inactive) throughout.
As for `COC1(c2ccccc2)N=C(S)NN=C1c1ccccc1` (stereo unspecified), the GI50 in the assay with TK-10 is 48.2 µM (inactive); in the assay on SF-268, 37.2 µM (inactive); in the assay on RXF 393 it was 63.4 µM (inactive); with BT-549, 28.2 µM (inactive); with NCI/ADR-RES, 19.1 µM (inactive); in the assay with OVCAR-5 it was 78.2 µM (inactive). For the same molecule, the GI50 in the assay on MOLT-4 is 35.4 µM (inactive); in the assay on SK-OV-3, 26.7 µM (inactive); with 786-0, 41.7 µM (inactive); with SK-MEL-5 it was 29.5 µM (inactive); in the assay on SN12C it was 21 µM (inactive); with COLO 205, 21.9 µM (inactive). In addition, the GI50 was > 100 µM (inactive) with HOP-92; 38.9 µM (inactive) in the assay on RPMI-8226; 29.4 µM (inactive) in the assay on SR; 45.2 µM (inactive) in the assay on A549; 89.9 µM (inactive) with EKVX; 39.8 µM (inactive) in the assay with KM12. Also, the GI50 in the assay on NCI-H522 was 24.9 µM (inactive).
As to `O=C(NC12CC3CC(CC(C3)C1)C2)n1cnc2c(Cl)ncnc21`, the GI50 in the assay on TK-10 was > 100 µM (inactive); in the assay with SF-268 it was 22.6 µM (inactive); in the assay on RXF 393, 35.2 µM (inactive); with BT-549, 31.3 µM (inactive); in the assay with NCI/ADR-RES, > 100 µM (inactive); in the assay with OVCAR-5, > 100 µM (inactive). For the same molecule, the GI50 in the assay on MOLT-4 was 15 µM (inactive); in the assay on SK-OV-3, 34.3 µM (inactive); in the assay on 786-0 it was > 100 µM (inactive); in the assay on SK-MEL-5, 24.2 µM (inactive); in the assay on SN12C it was > 100 µM (inactive); in the assay with COLO 205, 17 µM (inactive). The GI50 was 34.2 µM (inactive) in the assay on HOP-92; 40.7 µM (inactive) in the assay on RPMI-8226; 10.8 µM (inactive) in the assay on SR; 38.4 µM (inactive) in the assay with A549; 25.8 µM (inactive) in the assay with EKVX; > 100 µM (inactive) with KM12. Also, the GI50 with NCI-H522 is 27.9 µM (inactive).
For `CC(C)C12CCC3(CCC4C(C)(C(=O)O)CCCC4(C)C3C1)C(CN)C2` (stereo unspecified), the GI50 is 37.7 µM (inactive) in the assay with TK-10; 54.8 µM (inactive) in the assay on SF-268; 35.2 µM (inactive) in the assay on RXF 393; 38.5 µM (inactive) with BT-549; 37.6 µM (inactive) with NCI/ADR-RES; 42.3 µM (inactive) in the assay on OVCAR-5. Further, the GI50 in the assay with OVCAR-4 was 67.9 µM (inactive); in the assay with SK-OV-3, > 100 µM (inactive); in the assay on 786-0, 20.2 µM (inactive); with SK-MEL-5, 27.7 µM (inactive); in the assay with SN12C, 20.8 µM (inactive); with COLO 205, 17.7 µM (inactive). In addition, the GI50 is 55.6 µM (inactive) with HOP-92; 19.3 µM (inactive) with RPMI-8226; 25.9 µM (inactive) with SR; 30.1 µM (inactive) in the assay on A549; 32.2 µM (inactive) with EKVX; 35.8 µM (inactive) with KM12. Moreover, the GI50 in the assay on NCI-H522 was 23.8 µM (inactive).
Regarding `O=C(/C=C/c1ccc(O)c(O)c1)c1cc(O)cc(O)c1`, the GI50 was 15.3 µM (inactive) in the assay on TK-10; 9.79 µM (inactive) in the assay on SF-268; 10.4 µM (inactive) in the assay with RXF 393; 8.69 µM (inactive) in the assay on BT-549; 16.1 µM (inactive) in the assay on NCI/ADR-RES; 14.6 µM (inactive) with OVCAR-5. Moreover, the GI50 is 10.4 µM (inactive) in the assay on OVCAR-4; 4.91 µM (inactive) with MOLT-4; 13.9 µM (inactive) in the assay on SK-OV-3; 13.7 µM (inactive) in the assay on 786-0; > 100 µM (inactive) with SK-MEL-5; 13 µM (inactive) in the assay on SN12C. Besides, the GI50 with COLO 205 is 17.2 µM (inactive); with HOP-92, 13 µM (inactive); in the assay with RPMI-8226, 71.6 µM (inactive); with SR, 5.24 µM (inactive); in the assay on A549, > 100 µM (inactive); in the assay on EKVX, 20.6 µM (inactive). Also, the GI50 with NCI-H522 was 1.71 µM (inactive).
